Results: US5891882A, “Benzopyranopyrrole and benzopyranopyridine α-1 adenergic compounds” (priority 1997, dated 1999)
Where a name gives a salt, the structure may show the parent alone.

Tests used:
[1] = biological target: T1, α-1 Adrenoceptors (Rat Aorta) (Rattus norvegicus, UniProt P23944); experiment: Functional antagonism at α-1 adrenoceptors, rat aorta; type: cell-based; conditions: read-out: In Vitro Characterization (pA2) Rat Aorta (converted)
T1 construct: Rat Aorta; from tissue; host or cells: rat aorta
T1 sequence (P23944 1-561): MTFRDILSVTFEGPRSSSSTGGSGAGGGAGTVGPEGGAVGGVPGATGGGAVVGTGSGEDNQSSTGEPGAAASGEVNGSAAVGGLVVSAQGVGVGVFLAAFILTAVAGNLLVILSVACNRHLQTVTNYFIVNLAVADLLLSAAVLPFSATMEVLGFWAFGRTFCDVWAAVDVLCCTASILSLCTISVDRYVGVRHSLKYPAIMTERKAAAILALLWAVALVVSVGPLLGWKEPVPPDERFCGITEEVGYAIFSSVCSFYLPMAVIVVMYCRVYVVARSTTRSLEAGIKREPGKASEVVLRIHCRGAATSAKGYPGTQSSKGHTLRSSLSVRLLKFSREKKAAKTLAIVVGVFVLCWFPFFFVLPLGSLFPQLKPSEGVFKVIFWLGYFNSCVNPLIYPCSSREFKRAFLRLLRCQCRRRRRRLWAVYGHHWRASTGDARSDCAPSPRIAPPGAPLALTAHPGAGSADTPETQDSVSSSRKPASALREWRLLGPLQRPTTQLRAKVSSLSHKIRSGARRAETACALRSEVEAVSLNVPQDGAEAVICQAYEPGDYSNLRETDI
Procedure, shortened: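 Phenylephrine dose-response curves for contraction were repeated against increasing test-agent concentrations. pA2 was derived by Schild plot [[…] vs log molarity of test agent].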

[2] = biological target: T2, α-1A adrenoreceptor (rat vas deferens) (Rattus norvegicus, UniProt P43140); experiment: Functional antagonism: inhibition of phenylephrine-induced contraction of rat vas deferens; type: cell-based; conditions: rat vas deferens, phenylephrine-induced contraction, Schild plot
T2 construct: from tissue; host or cells: rat vas deferens
T2 sequence (P43140 1-466): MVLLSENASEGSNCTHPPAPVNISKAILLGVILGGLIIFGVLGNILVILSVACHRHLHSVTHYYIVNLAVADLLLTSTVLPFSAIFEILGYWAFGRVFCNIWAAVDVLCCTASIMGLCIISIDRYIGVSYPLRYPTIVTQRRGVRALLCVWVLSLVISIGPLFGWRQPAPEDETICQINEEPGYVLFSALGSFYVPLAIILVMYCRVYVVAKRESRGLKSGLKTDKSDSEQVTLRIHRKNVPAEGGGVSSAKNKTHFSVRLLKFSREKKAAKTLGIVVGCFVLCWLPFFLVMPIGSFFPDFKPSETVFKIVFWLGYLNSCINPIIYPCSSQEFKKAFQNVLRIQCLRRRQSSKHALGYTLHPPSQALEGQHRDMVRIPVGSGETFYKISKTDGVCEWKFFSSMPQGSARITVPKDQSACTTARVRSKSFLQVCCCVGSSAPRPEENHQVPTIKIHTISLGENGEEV
Text: (§1) Functional assays indicative of pharmacologically defined α-1 adrenoreceptors were used to further characterize compounds. Inhibition of phenylephrine (PE)-induced contraction of canine prostate smooth muscle can be correlated with α-1A adrenoreceptor activation. […] For each of these models, agonist dose response curves were repeated against increasing concentrations of test agent to derive a Schild plot [log ([…]) against log (molarity of test agent)] to determine the pA2.

[3] = biological target: T3, α-1B adrenoreceptor (rat spleen) (Rattus norvegicus, UniProt P15823); experiment: Functional antagonism: inhibition of phenylephrine-induced contraction of rat spleen; type: cell-based; conditions: rat spleen, phenylephrine-induced contraction, Schild plot
T3 construct: from tissue; host or cells: rat spleen
T3 sequence (P15823 1-515): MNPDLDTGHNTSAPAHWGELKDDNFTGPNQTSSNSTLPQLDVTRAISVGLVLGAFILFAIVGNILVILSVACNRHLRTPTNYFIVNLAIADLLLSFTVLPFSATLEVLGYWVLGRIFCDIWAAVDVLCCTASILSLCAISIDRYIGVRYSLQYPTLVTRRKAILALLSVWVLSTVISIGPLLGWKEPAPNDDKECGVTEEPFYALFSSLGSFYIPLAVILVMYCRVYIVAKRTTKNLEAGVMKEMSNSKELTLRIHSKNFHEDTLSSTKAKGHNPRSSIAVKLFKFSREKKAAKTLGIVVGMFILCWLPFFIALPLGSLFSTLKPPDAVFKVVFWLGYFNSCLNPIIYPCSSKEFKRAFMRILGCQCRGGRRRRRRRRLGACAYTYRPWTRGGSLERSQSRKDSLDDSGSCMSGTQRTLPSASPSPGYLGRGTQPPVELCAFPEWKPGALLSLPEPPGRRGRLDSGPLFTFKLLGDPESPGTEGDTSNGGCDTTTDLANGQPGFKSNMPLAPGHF
Text: as §1

[4] = test system: α-1 adrenoreceptor; conditions: cited from earlier work
[5] = antihypertensive treatment; cited from earlier work

SMILES	Kb [1] [pM]	In Vitro Characterization (pA2) Rat Vas [2]	In Vitro Characterization (pA2) Rat Spleen [3]	dose limiting side effects ([4]; BPH treatment)	urinary flow rates and subjective symptom scores ([4]; longer term studies, BPH)	urinary incontinence in women [5]
COc1cccc2c1[C@@H]1CN(CCCCn3c(=O)[nH]c4c(sc5ccncc54)c3=O)C[C@H]1CO2 [Example 41, 3-[4-((3aR,9bR)-trans-9-Methoxy-1,2,3,3a,4,9b-hexahydro-[1]-benzopyrano[3,4-c]pyrrol-2-yl)butyl]-pyrido[3',4':4,5]thieno[3,2-d]pyrimidine-2,4(1H,3H)-dione hydrochloride]	17	9.45				
COc1cccc2c1[C@@H]1CN(CCCCn3c(=O)[nH]c4c(sc5cnccc54)c3=O)C[C@H]1CO2 [Example 42, hydrochloride]	38.9	9.59				
COc1cccc2c1[C@@H]1CN(CCCCn3c(=O)[nH]c4c(sc5nc(C)ccc54)c3=O)C[C@H]1CO2 [Example 45, 3-[4-((3aS,9bR)-trans-9-Methoxy-1,2,3,3a,4,9b-hexahydro-[1]-benzopyrano[3,4-c]pyrrol-2-yl)butyl]-7-methyl-pyrido[3',2':4,5]thieno[3,2-d]pyrimidine-2,4(1H,3H)-dione hydrochloride]	209	9.59				
COc1cccc2c1[C@@H]1CN(CCCCn3c(=O)[nH]c4c(sc5c(Cl)nccc54)c3=O)C[C@@H]1CO2 [Example 53, 3-[4-((3aR,9bR)-cis-9-Methoxy-1,2,3,3a,4,9b-hexahydro-[1]-benzopyrano[3,4-c]pyrrol-2-yl)butyl]-6-chloro-pyrido[4',3':4,5]thieno[3,2-d]pyrimidine-2,4(1H,3H)-dione]	1070	9.31	7.2			
COc1cc2nc(N3CCN(C(=O)c4ccco4)CC3)nc(N)c2cc1OC [Prazosin, prazosin]				hypotension, dizziness, and muscle fatigue	significant improvements in urinary flow rates and subjective symptom scores	urinary incontinence developed in women
